We go through nine compounds from patent US20110311511A1, “CRYSTAL STRUCTURE OF PfA-M1 AND THE PfA-M1 Co4 COMPLEX” (priority 2008, published 2011).

Experiment [1] relates to recombinant P. falciparum M1 aminopeptidase (rPfA-M1). Kind of experiment: Enzymatic analysis: aminopeptidase activity with fluorogenic peptide substrates (NHMec release) and inhibition. It is filed as biochemical, Plasmodium falciparum. The following applies: for Km / kcat: substrate of rPfA-M1, pH 7.5. The protocol: Aminopeptidase activity was determined by measuring the release of the fluorogenic leaving group, 7-amino-4-methyl-coumarin (NHMec) from the fluorogenic peptide substrates H-Leu-NHMec, H-Ala-NHMec, H-Arg-NHMec, H-Met-NHMec, H-Phe-NHMec, H-Gly-NHMec, H-Val-NHMec, H-Ile-NHMec and H-Pro-NHMec. Reactions were carried out in 96-well microtitre plates (200 μl total volume, 30 min, 37° C.) using a spectrofluorimeter (Bio-Tek KC4) with excitation at 370 nm and emission at 460 nm. […] […] Inhibition experiments were carried out in the presence of substrate.

For another experiment, the system named is P. c. chabaudi. Conditions: cited from earlier work.
In the next experiment the target is T1, PfA-M17 (Plasmodium falciparum, UniProt Q8IL11).
T1 sequence (Q8IL11 84-605 limits assumed): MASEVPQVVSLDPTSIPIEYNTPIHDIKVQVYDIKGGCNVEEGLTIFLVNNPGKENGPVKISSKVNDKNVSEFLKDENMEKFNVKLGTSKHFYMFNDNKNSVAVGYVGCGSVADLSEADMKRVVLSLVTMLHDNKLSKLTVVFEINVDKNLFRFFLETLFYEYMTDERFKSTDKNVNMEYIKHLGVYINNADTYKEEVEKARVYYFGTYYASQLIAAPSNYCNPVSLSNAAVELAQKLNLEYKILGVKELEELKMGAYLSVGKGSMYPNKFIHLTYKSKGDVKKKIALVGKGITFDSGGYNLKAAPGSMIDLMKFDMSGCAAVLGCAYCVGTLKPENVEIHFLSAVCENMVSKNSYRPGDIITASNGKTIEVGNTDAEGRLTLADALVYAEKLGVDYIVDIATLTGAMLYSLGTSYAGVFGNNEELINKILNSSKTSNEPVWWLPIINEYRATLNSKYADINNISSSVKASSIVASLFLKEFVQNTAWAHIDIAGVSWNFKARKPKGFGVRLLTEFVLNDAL
The following applies: cited from earlier work.

What is called Km is the concentration of substrate that gives half-maximal velocity. For orientation: kcat means the maximal rate divided by the concentration of active sites. On to H-Phe-NHmec, for which, in experiment [1], the Km was found to be 195 µM and the kcat was found to be 0.18 s⁻¹.

On to `CCC(C)C(N)C(=O)Nc1ccc2c(C)cc(=O)oc2c1` (stereo not shown) [H-Ile-NHmec], for which, in experiment [1], the Km was 1710 µM and the kcat worked out at 0.040 s⁻¹.

Take `Cc1cc(=O)oc2cc(NC(=O)[C@@H](N)C(C)C)ccc12` [H-Val-NHmec]: in experiment [1], the Km amounted to 1070 µM and the kcat amounted to 0.036 s⁻¹.

As for `Cc1cc(=O)oc2cc(NC(=O)[C@@H]3CCCN3)ccc12` [H-Pro-NHmec], in experiment [1], the Km is 734 µM and the kcat is 0.0032 s⁻¹.

For H-Arg-NHmec, in experiment [1], the Km came to 717 µM and the kcat was determined as 1.07 s⁻¹.

Regarding H-Leu-NHmec, in experiment [1], the Km turned out to be 330 µM and the kcat worked out at 1.52 s⁻¹.

In general, Ki refers to the equilibrium dissociation constant of an inhibitor or competing ligand from its target. Consider `NC(CCc1ccccc1)P(=O)(O)CC(Cc1ccccc1)C(=O)O` (stereo not shown) [Co4, hPheP[CH2]Phe], for which the “reduction of murine infection of P. c. chabaudi compared to controls” value in the experiment on P. c. chabaudi is listed as 92%. The Ki in experiment [1] (inhibition of rPfA-M1, in the presence of substrate) is 0.0783 µM. Further, the “inhibition of PfA-M17” value on PfA-M17 was “inhibits”.

Regarding H-Gly-NHmec, in experiment [1], the Km worked out at 349 µM and the kcat came to 0.116 s⁻¹.

H-Ala-NHmec: in experiment [1], the Km worked out at 889 µM and the kcat turned out to be 2.04 s⁻¹.
